Test results: patent US20090202481A1, “Composition for Sustained Release Delivery of Proteins or Peptides” (priority 2008, published 2009)

Tests used:
Type in all cases: physicochemical
[1] = Purity of the octreotide in formulations at room temperature over time (HPLC); conditions: SAIB/NMP formulation
Protocol: (§1) Octreotide acetate (OCT-Ac) and octreotide conjugate (PAL-PEG-BA-OCT) powders were dissolved in NMP. Then the solutions containing various forms of octreotide were thoroughly mixed with SAIB solution in NMP (90% w/w).
(§2) The formulations as prepared above were allowed to stand at room temperature (˜22° C.). At predefined time points, the appearance of the formulations was recorded and an aliquot of each of both the supernatant and bottom composition was collected and analyzed by HPLC for octreotide content. The physical stability of the formulations was determined by direct observation or using the ratio of the content of the octreotide in the supernatant to that in the bottom composition. If the ratio equals to 1.0, the formulation is uniform and stable.

[2] = In vitro release of octreotide from SAIB/NMP formulations into PBS 7.4 at 37° C.; conditions: PBS 7.4, 37° C., SAIB/NMP formulation
Protocol: Formulations were prepared by mixing octreotide acetate (OCT-Ac) and octreotide conjugate (PAL-PEG-BA-OCT) powders with SAIB solution in NMP (90% w/w).
Due to the physical instability of the formulation containing OCT-Ac, the in vitro release was investigated immediately after the preparation of the formulations. An aliquot of the suspension was used for the in vitro release. About 0.1 mL of each formulation containing octreotide was injected into 3 mL of releasing buffer (PBS 7.4, containing 0.1% sodium azide) in a 4 mL glass vial. The vials were incubated at 37° C. and sampled at various time points. At each time point, 2 mL of release medium was removed and 2 mL of fresh release medium added. The collected samples were analyzed for peptide concentration and integrity by HPLC using an YMC-Pack ODS-120A column. Triplicate samples were used for each formulation.

[3] = Physical stability (phase separation, top/bottom ratio) of SAIB/NMP formulations standing at room temperature
Protocol: as §1, §2

Structure (SMILES): C[C@@H](O)[C@@H]1NC(=O)[C@H](CCCCN)NC(=O)[C@@H](Cc2c[nH]c3ccccc23)NC(=O)[C@H](Cc2ccccc2)NC(=O)[C@@H](NC(=O)[C@H](N)Cc2ccccc2)CSSC[C@@H](C(=O)N[C@H](CO)[C@@H](C)O)NC1=O [OCT-Ac, Octreotide acetate]
- Octreotide degraded in the bottom phase ([1]; after 7 days): more than 20%
- Octreotide degraded in the supernatant ([1]; after 7 days): More than half
- Octreotide degraded or reacted ([1]; after two hours): about 4%
- Initial burst release (FIG. 2) [2]: very high initial burst release
- Octreotide released ([2]; after two weeks): more than 90%
- Octreotide released ([2]; within 24 hours): More than 60%
- Appearance when combined with SAIB/NMP solution ([3]; on mixing, about 6% octreotide content): phase separation occurred immediately
- NMP in the bottom phase ([3]; room temperature, SAIB/NMP formulation): slightly more NMP
- OCT ratio top/bottom ([3]; room temperature, after 5 days): less than 0.03
- Concentration of the octreotide in the bottom phase relative to the upper phase ([3]; room temperature, after two days): about 20 folds
- Phase separation of formulation (FIG. 1) ([3]; stood at room temperature for 24 h): apparent phase separation occurred
